Measurements published in PubChem BioAssay AID624443 (The Scripps Research Institute Molecular Screening Center, 2012).
Calls of active or inactive are those of the source.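 The calls were made as follows: active = inhibition of 30% or more at 50 µM, though no compound was called active; inactive = inhibition below 30% at 50 µM.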

Target: Serine/threonine-protein phosphatase 2A catalytic subunit alpha isoform (Bos taurus) (UniProt P67774)
Assay: PP2A phosphatase inhibition, late-stage follow-up, selectivity assay for PP5 inhibitor project, biochemical, bovine brain PP2A, 33P-phosphohistone, single concentration, round 5 (AID 624443)
Details: purified bovine PP2A, 33P-phosphohistone dephosphorylation, scintillation; at 50 µM; hits give high values

Sequence of Serine/threonine-protein phosphatase 2A catalytic subunit alpha isoform (Bos taurus) (P67774 whole entry, looked up, canonical isoform): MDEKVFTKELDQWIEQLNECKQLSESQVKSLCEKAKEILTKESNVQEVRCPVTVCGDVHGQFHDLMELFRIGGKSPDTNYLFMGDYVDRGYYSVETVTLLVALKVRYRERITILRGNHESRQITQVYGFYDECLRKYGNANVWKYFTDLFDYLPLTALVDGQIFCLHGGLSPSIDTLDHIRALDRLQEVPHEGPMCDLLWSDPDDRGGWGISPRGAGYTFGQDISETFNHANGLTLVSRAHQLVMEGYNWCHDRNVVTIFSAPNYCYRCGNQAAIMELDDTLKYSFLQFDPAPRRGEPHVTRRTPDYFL

inhibition | Compound
3.7% (inactive) | COc1cccc(-c2n[nH]nc2C(=O)O)c1
-0.575% (inactive) | O=C(O)c1n[nH]nc1-c1ccc(F)cc1
3.76% (inactive) | O=C(O)c1n[nH]nc1-c1ccccc1F
1.89% (inactive) | O=C(O)c1n[nH]nc1-c1cccc(F)c1
24.7% (inactive) | COc1ccccc1-c1n[nH]nc1C(=O)O
-5.38% (inactive) | COc1ccc(-c2n[nH]nc2C(=O)O)cc1
0.275% (inactive) | O=C(O)c1n[nH]nc1-c1ccccc1O
